Reference: paper PMC7656302 (Cancers, 2020)

What was measured:
[1] = clinical; details: human, in vivo
Description: Concentration-time curve and PK parameters were analyzed for each compound. Maximal concentrations (Cmax) and the time to reach the Cmax (Tmax) were graphically identified and the AUC was calculated with a non-compartmental method.

[2] = tested on: HIF-1α; details: colon cancers, oxygen concentrations from 5 to 1%; cited from earlier work

concentration at 8 day ([1]; D8 rapamycin concentrations) [ng/mL] | Tmax ([1]; Rapamycin D1 Tmax) [h] | AUC ([1]; mean AUC of D8 rapamycin) [ng·h/mL] | Tmax ([1]; Irinotecan D1 Tmax) [h] | AUC ([1]; irinotecan mean AUC) [ng·h/mL] | AUC ([1]; mean AUC of irinotecan) [ng·h/mL] | AUC ([1]; mean irinotecan AUCs) [ng·h/mL] | SMILES | inhibition of HIF-1α [2]
6.75 | 3.5 | 176 | – | – | – | – | CO[C@H]1C[C@@H]2CC[C@@H](C)[C@@](O)(O2)C(=O)C(=O)N2CCCC[C@H]2C(=O)O[C@H]([C@H](C)C[C@@H]2CC[C@@H](O)[C@H](OC)C2)CC(=O)[C@H](C)/C=C(\C)[C@@H](O)[C@@H](OC)C(=O)[C@H](C)C[C@H](C)/C=C/C=C/C=C/1C [rapamycin] | –
– | – | – | 1.67 | 6740 | 6870 | 5970 | CCc1c2c(nc3ccc(OC(=O)N4CCC(N5CCCCC5)CC4)cc13)-c1cc3c(c(=O)n1C2)COC(=O)[C@]3(O)CC [irinotecan] | high inhibition of HIF-1α
